Test results as given in the NIST ThermoML archive (doi:10.1021/je200784y).
Numbers after ± are expanded uncertainties.

Conditions: Liquid, Ebulliometric method (Recirculating still)

## CCOC(=O)OCC [diethyl carbonate]
354.68 K
  vapor or sublimation pressure: 22.56 ± 0.11 kPa
357.44 K
  vapor or sublimation pressure: 25.03 ± 0.11 kPa
359.95 K
  vapor or sublimation pressure: 27.54 ± 0.11 kPa
362.26 K
  vapor or sublimation pressure: 29.99 ± 0.11 kPa
364.46 K
  vapor or sublimation pressure: 32.51 ± 0.11 kPa
366.57 K
  vapor or sublimation pressure: 35.05 ± 0.11 kPa
368.45 K
  vapor or sublimation pressure: 37.52 ± 0.11 kPa
370.28 K
  vapor or sublimation pressure: 40.03 ± 0.11 kPa
372.04 K
  vapor or sublimation pressure: 42.49 ± 0.12 kPa
373.73 K
  vapor or sublimation pressure: 45.05 ± 0.12 kPa
375.26 K
  vapor or sublimation pressure: 47.47 ± 0.12 kPa
376.81 K
  vapor or sublimation pressure: 50.04 ± 0.12 kPa
378.22 K
  vapor or sublimation pressure: 52.46 ± 0.12 kPa
379.67 K
  vapor or sublimation pressure: 55.03 ± 0.12 kPa
381.03 K
  vapor or sublimation pressure: 57.56 ± 0.13 kPa
382.32 K
  vapor or sublimation pressure: 59.95 ± 0.13 kPa
383.6 K
  vapor or sublimation pressure: 62.52 ± 0.13 kPa
384.81 K
  vapor or sublimation pressure: 64.97 ± 0.13 kPa
385.98 K
  vapor or sublimation pressure: 67.44 ± 0.13 kPa
387.13 K
  vapor or sublimation pressure: 70.02 ± 0.13 kPa
388.28 K
  vapor or sublimation pressure: 72.51 ± 0.14 kPa
389.32 K
  vapor or sublimation pressure: 74.96 ± 0.14 kPa
390.35 K
  vapor or sublimation pressure: 77.43 ± 0.14 kPa
391.39 K
  vapor or sublimation pressure: 79.97 ± 0.14 kPa
392.45 K
  vapor or sublimation pressure: 82.52 ± 0.14 kPa
393.34 K
  vapor or sublimation pressure: 84.84 ± 0.15 kPa
394.36 K
  vapor or sublimation pressure: 87.52 ± 0.15 kPa
395.23 K
  vapor or sublimation pressure: 89.81 ± 0.15 kPa
396.21 K
  vapor or sublimation pressure: 92.53 ± 0.15 kPa
397.03 K
  vapor or sublimation pressure: 94.89 ± 0.15 kPa
397.96 K
  vapor or sublimation pressure: 97.54 ± 0.15 kPa
398.81 K
  vapor or sublimation pressure: 100.03 ± 0.16 kPa
399.27 K
  vapor or sublimation pressure: 101.38 ± 0.16 kPa
